US8741911B2, “Raf inhibitor compounds” (Eli Lilly and Company, priority 2012, dated 2014)
Where two headings read alike, the source gives them in different places.

How the values were obtained:
[1] = test system: phospho-MEK and phospho-ERK in HCT-116 cells harboring B-Raf wild type and K-Ras mutation; test: Immunoblotting (Western Blot) analysis, paradoxical pathway activation; type: cell-based, human
Experimental: (§1) Testing is carried out at doses of 0, and 11 serial dilutions ranging from 0.17 to 10000 nM. Protein lysates are generated by treatment of the cells with RIPA lysis buffer from Millipore. Western blotting analysis is performed substantially as described in Yadav et al, Molecular Carcinogenesis, 2011, 50: 346-52. Briefly, SDS-PAGE is performed on cell lysates containing 20 ug of total protein using 4-20% Novex® tri-glycine gradient gels (Invitrogen). Protein is transferred onto […] nitrocellulose membranes using NuPAGE® Transfer Buffer (Invitrogen) and 10% methanol at 100 V, 4° C. for 1 hr. Generally, the primary antibody is used at 1:1000 dilution, and secondary antibody at 1:20000 dilution. Proteins are detected using the Odyssey Infrared Imaging System (Li-COR Biosciences). Antibodies against ERK1/2, phospho-ERK1/2, phospho-MEK1/2, and actin are obtained from Cell Signaling Technology.
Testing is carried out at doses of 0, and 11 serial dilutions ranging from 0.17 to 10000 nM. The phospho-MEK and phospho-ERK activities were evaluated by Immunoblotting (Western Blot) analysis.

Colo205 cells = test: CellTiter-Blue Colo-205 cell proliferation assay; type: cell-based; settings: Homo sapiens; Colo-205, CellTiter-Blue; read-out: Cell Proliferation Inhibition IC50
Experimental: Colo205 cells (catalog #HB-8307) are obtained from the American Type Culture Collection (ATCC, Manassas, Va.). Briefly, cells are grown in RPMI 1640 supplemented with 10% characterized fetal bovine serum (Invitrogen, Carlsbad, Calif.), 1 mM sodium pyruvate, and 1% Penicillin/Streptomycin/L-Glutamine at 37 degrees Celsius, 5% CO2, and 95% humidity. Cells are allowed to expand until reaching 30-60% confluency at which point they are subcultured or harvested for assay use. A serial dilution of test compound is dispensed into a 384-well black clear bottom plate in triplicate. One thousand two-hundred fifty cells are added per well in 50 μL complete growth medium in the 384-well plate. Plates are incubated for 67 hours at 37 degrees Celsius, 5% CO2, and 95% humidity. At the end of the incubation period, 10 μL of a 440 μM solution of resazurin (Sigma, St. Louis, Mo.) in PBS is added to each well of the plate and plates are incubated for an additional 5 hours at 37 degrees Celsius, 5% CO2, and 95% humidity. Plates are read on a Synergy2 reader (Biotek, Winooski, Vt.) using an excitation of 540 nm and an emission of 600 nm. Data is analyzed using Prism software (Graphpad, San Diego, Calif.) to calculate IC50 values.
The A375, HT-29, and Colo-205 cells (ATCC) harbor a V600E mutation.

NCI-H2081 = test: CellTiter-Glo proliferation and viability assay; type: cell-based; settings: Homo sapiens
A549 = test: CellTiter-Glo proliferation and viability assay; type: cell-based; settings: Homo sapiens
[2] = test system: phospho-MEK and phospho-ERK in SK-MeI-2 cells; test: Immunoblotting (Western Blot) analysis of phospho-MEK and phospho-ERK; type: cell-based, human; settings: SK-MeI-2, Western Blot
Experimental: N-Ras mutations B-Raf wild type leads to MAPK activation through Raf proteins, particularly C-Raf.
as §1

A-Raf (WT) = molecular target: T1, A-Raf (WT) (Homo sapiens, UniProt P10398); test: ActivX KiNativ A375 whole cell lysate assay; type: binding
T1 construct: Measurement of Raf Kinase Activities with Native Whole Enzymes Using KiNativ Assay; host or cells: A375 human melanoma cells, whole cell lysate
T1 sequence (P10398 1-606): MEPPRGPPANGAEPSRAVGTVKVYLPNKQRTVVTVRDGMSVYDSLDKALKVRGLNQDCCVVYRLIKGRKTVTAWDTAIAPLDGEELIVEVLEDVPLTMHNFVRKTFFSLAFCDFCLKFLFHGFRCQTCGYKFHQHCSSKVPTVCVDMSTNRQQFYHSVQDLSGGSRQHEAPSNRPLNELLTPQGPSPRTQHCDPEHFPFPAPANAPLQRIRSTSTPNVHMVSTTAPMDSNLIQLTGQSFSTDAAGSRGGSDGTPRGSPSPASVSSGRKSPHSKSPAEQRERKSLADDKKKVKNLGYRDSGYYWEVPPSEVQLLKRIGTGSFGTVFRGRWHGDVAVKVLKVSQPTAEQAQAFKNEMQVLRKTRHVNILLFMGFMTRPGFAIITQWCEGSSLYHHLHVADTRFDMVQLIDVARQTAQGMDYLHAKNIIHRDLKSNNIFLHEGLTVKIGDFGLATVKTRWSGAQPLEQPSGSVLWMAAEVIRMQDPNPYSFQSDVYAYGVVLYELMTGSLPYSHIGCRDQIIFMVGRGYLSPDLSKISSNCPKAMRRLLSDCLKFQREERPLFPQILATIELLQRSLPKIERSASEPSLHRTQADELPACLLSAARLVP

NCI-H1573 = test: CellTiter-Glo proliferation and viability assay; type: cell-based; settings: Homo sapiens
HepG2 = test: CellTiter-Glo proliferation and viability assay; type: cell-based; settings: Homo sapiens
THP-1 = test: CellTiter-Glo proliferation and viability assay; type: cell-based; settings: Homo sapiens
Hep3B2.1-7 = test: CellTiter-Glo proliferation and viability assay; type: cell-based; settings: Homo sapiens
SiHa = test: CellTiter-Glo proliferation and viability assay; type: cell-based; settings: Homo sapiens
NCI-H1299 = test: CellTiter-Glo proliferation and viability assay; type: cell-based; settings: Homo sapiens
AGS = test: CellTiter-Glo proliferation and viability assay; type: cell-based; settings: Homo sapiens
SW900 = test: CellTiter-Glo proliferation and viability assay; type: cell-based; settings: Homo sapiens
LN 229 = test: CellTiter-Glo proliferation and viability assay; type: cell-based; settings: Homo sapiens
RKO = test: CellTiter-Glo proliferation and viability assay; type: cell-based; settings: Homo sapiens
EB2 = test: CellTiter-Glo proliferation and viability assay; type: cell-based; settings: Homo sapiens

Question: For CNc1ncc2cc(-c3cc(NC(=O)NCCC(C)(C)C)c(F)cc3C)c(C)nc2n1 [Example 1, 1-(3,3-Dimethylbutyl)-3-(2-fluoro-4-methyl-5-(7-methyl-2-(methylamino)pyrido[2,3-d]pyrimidin-6-yl)phenyl)urea], which paradoxical pathway activation ([1]; HCT-116, B-Raf wild type and K-Ras mutation) is on record?
Answer: minimal paradoxical pathway activation

Question: What about the “doses that substantially eliminate phospho-ERK signal” value ([1]; HCT-116, Western Blot) of the same compound?
Answer: above 41 nM

Question: What about the IC50 (Colo205 cells) of the same compound?
Answer: 27 nM

Question: What about the IC50 (NCI-H2081; read-out: Abs IC50) of the same compound?
Answer: > 20 nM

Question: What about the IC50 (NCI-H2081; read-out: Rel IC50) of the same compound?
Answer: > 20 nM

Question: What about the IC50 (A549; read-out: Abs IC50) of the same compound?
Answer: 4.42 nM

Question: What about the IC50 (A549; read-out: Rel IC50) of the same compound?
Answer: 2.07 nM

Question: And the “dose at which phospho-ERK activity is substantially eliminated” value [2]?
Answer: 370 nM

Question: And the “phospho-MEK and phospho-ERK inhibition” value ([2]; 0.17 to 10000 nM)?
Answer: dose dependent phospho-MEK and phospho-ERK inhibition

Question: And the inhibition at 0.001 µM (A-Raf (WT); 1 nM)?
Answer: 4.3%

Question: And the inhibition at 0.01 µM (A-Raf (WT); 10 nM)?
Answer: 13.4%

Question: What about the inhibition at 0.1 µM (A-Raf (WT); 100 nM) of the same compound?
Answer: 53.6%

Question: What about the inhibition at 1 µM (A-Raf (WT); 1000 nM) of the same compound?
Answer: 72%

Question: And the IC50 (NCI-H1573; read-out: Abs IC50)?
Answer: > 20 nM

Question: What about the IC50 (NCI-H1573; read-out: Rel IC50) of the same compound?
Answer: 0.99 nM

Question: And the IC50 (HepG2; read-out: Abs IC50)?
Answer: 0.06 nM

Question: What about the IC50 (HepG2; read-out: Rel IC50) of the same compound?
Answer: 0.03 nM

Question: What about the IC50 (THP-1; read-out: Abs IC50) of the same compound?
Answer: 0.08 nM

Question: And the IC50 (THP-1; read-out: Rel IC50)?
Answer: 0.03 nM

Question: And the IC50 (Hep3B2.1-7; read-out: Abs IC50)?
Answer: 0.8 nM

Question: And the IC50 (Hep3B2.1-7; read-out: Rel IC50)?
Answer: 0.36 nM

Question: And the IC50 (SiHa; read-out: Abs IC50)?
Answer: > 20 nM

Question: What about the IC50 (SiHa; read-out: Rel IC50) of the same compound?
Answer: > 20 nM

Question: What about the IC50 (NCI-H1299; read-out: Abs IC50) of the same compound?
Answer: 0.91 nM

Question: And the IC50 (NCI-H1299; read-out: Rel IC50)?
Answer: 0.14 nM

Question: What about the IC50 (AGS; read-out: Abs IC50) of the same compound?
Answer: 1.14 nM

Question: And the IC50 (AGS; read-out: Rel IC50)?
Answer: 0.34 nM

Question: What about the IC50 (SW900; read-out: Abs IC50) of the same compound?
Answer: 0.69 nM

Question: What about the IC50 (SW900; read-out: Rel IC50) of the same compound?
Answer: 0.23 nM

Question: What about the IC50 (LN 229; read-out: Abs IC50) of the same compound?
Answer: 1.22 nM

Question: And the IC50 (LN 229; read-out: Rel IC50)?
Answer: 1.08 nM

Question: What about the IC50 (RKO; read-out: Abs IC50) of the same compound?
Answer: 4.92 nM

Question: And the IC50 (RKO; read-out: Rel IC50)?
Answer: 0.26 nM

Question: And the IC50 (EB2; read-out: Abs IC50)?
Answer: > 20 nM

Question: And the IC50 (EB2; read-out: Rel IC50)?
Answer: 0.5 nM
